According to patent publication US8389509B2, “Substituted pyrazole compounds” (Bristol-Myers Squibb Company, priority 2009, dated 2013):
Counter-ions that a name gives are not always drawn.

Tests used:
[1] = biological target: T1, S1P1 (Homo sapiens, UniProt P21453); assay: S1P1 Binding Assay (33P-S1P competition, CHO membranes); conditions: membranes of CHO cells expressing human S1P1, 33P-S1P ligand; read-out: S1P1 B IC50
T1 construct: expressed in transfected cells; host or cells: CHO cells
Method: Membranes were prepared from CHO cells expressing human S1P1. Cells were dissociated in buffer containing 20 mM HEPES, pH 7.5, 50 mM NaCl, 2 mM EDTA and Protease Inhibitor cocktail (Roche), and disrupted on ice using the Polytron homogenizer. The homogenate was centrifuged at 20,000 rpm (48,000 g) and the supernatant was discarded. The membrane pellets were resuspended in buffer containing 50 mM HEPES, pH 7.5, 100 mM NaCl, 1 mM MgCl2, 2 mM EDTA and stored in aliquots at −80° C. after protein concentration determination.
Membranes (2 μg/well) and 0.03 nM final concentration of ^33P-S1P ligand (1 mCi/ml, American Radiolabeled Chemicals) were added to the compound plates. Binding was performed for 60 min at room temperature, terminated by collecting the membranes onto GF/B filter plates, and radioactivity was measured by TOPCOUNT®. The competition data of the test compounds over a range of concentrations was plotted as percentage inhibition of radioligand specific binding. The IC50 is defined as the concentration of competing ligand needed to reduce specific binding by 50%.
Compounds of the present invention and Comparative Compound A were tested in the S1P1 binding assay described hereinabove and the results rounded to two digits, shown in Table A were obtained. In some instances, the value is an average of multiple experiments where N is the number of experiments conducted that provided satisfactory dose response curves. When more than one batch of an example was tested, the value presented is from the batch which allowed a comparison of GTPγS S1P1 and GTPγS S1P3 in Method A (Data shown in Table B). Data was not averaged across different batches of an example compound.

[2] = biological target: T1, S1P1; assay: Method A: Receptor [35S] GTPγS Binding Assay, S1P1; type: biochemical; conditions: for EC50: Method A, S1P1/CHO cell membranes; for GTPγS S1P3/S1P1 (Method A): ratio of S1P3 EC50 to S1P1 EC50, Method A
Method: (§1) Method A: Receptor [35S] GTPγS Binding Assays
(§2) Compounds were loaded in a 384 FALCON® v-bottom plate (0.5 μl/well in a 3-fold dilution). Membranes prepared from S1P1/CHO cells or EDG3-Gal5-bla HEK293T cells were added to the compound plate (40 μl/well, final protein 3 μg/well) with MULTIDROP®. [^35S]GTP (1250 Ci/mmol, Perkin Elmer) was diluted in assay buffer: 20 mM HEPES, pH7.5, 10 mM MgCl2, 150 mM NaCl, 1 mM EGTA, 1 mM DTT, 10 μM GDP, 0.1% fatty acid free BSA, and 10 μg/ml Saponin to 0.4 nM. 40 μl of the [^35S] GTP solution was added to the compound plate with a final concentration of 0.2 nM. The reaction was kept at room temperature for 45 min. At the end of incubation, all the mixtures in the compound plate were transferred to a 384 well FB filter plates via GPCR robot system. The filter plate was washed with water 4 times by using the modified manifold Embla plate washer and dried at 60° C. for 45 min. 30 μA of MicroScint 20 scintillation fluid was added to each well for counting at Packard TOPCOUNT®. EC50 is defined as the agonist concentration that corresponds to 50% of the Ymax (maximal response) obtained for each individual compound tested.
(§3) Compounds of the present invention and Comparative Compound A were tested in the Receptor [^35S] GTPγS Binding Assays (Method A) and Receptor [^35S] In some instances, the value is an average of multiple experiments where N is the number of experiments conducted that provided satisfactory dose response curves. When more than one batch of an example was tested, the value presented is from a batch which allowed a comparison of GTPγS S1P1 and GTPγS S1P3 in which the most number of experiments were performed. Preferably, the same batch was examined in Method A and Method B. Data was not averaged across different batches of an example compound.

[3] = biological target: T2, S1P3 (Homo sapiens, UniProt Q99500); assay: Method A: Receptor [35S] GTPγS Binding Assay, S1P3; type: biochemical; parameters: expressed in transfected cells; conditions: EDG3-Gal5-bla HEK293T cell membranes
Method: as §1, §2, §3

[4] = biological target: T2, S1P3; assay: Method B: Receptor [35S] GTPγS SPA Binding Assay, S1P3; type: biochemical; parameters: expressed in transfected cells; host or cells: CHO cells; conditions: S1P3 transfected CHO cell membranes
Method: (§4) Method B: Receptor [^35S] GTPγS SPA Binding Assays
(§5) Membranes prepared from S1P1 or S1P3 transfected CHO cells (2 μg protein) were incubated in 96-well white plates (CORNING® 3693) with test compounds diluted in DMSO, in 50 μl of reaction mixture containing 7.5 μA WGA-PVT beads (20 mg/ml), and 5 μM GDP, 20 mM HEPES pH 7.4, 100 mM NaCl, 1 mM EDTA, 5 mM MgCl2, 10 μg/ml saponin, 0.1% BSA, and 1 μM leupeptin. The assay was initiated with the addition of […] of 0.2 nM [^35S]-GTPγS (1250 Ci/mmol; NEN) in assay buffer. After 90 min incubation at room temperature, spin the plate at 1000 rpm for 5 min. The bound radionuclides were measured at TOPCOUNT®, expressed as % response relative to S1P (1 μM) activation. Data was analyzed using the four parameter logistic equation in Excel. The four parameters in the equation, Y=A+((B−A)/(1+((EC50/X)^D))), are described as following: A is the Y value (agonist activity) at the bottom plateau; B is the Y value at the top plateau; EC50 is the X value (agonist concentration) when the response is halfway between bottom and top; D is Hill coefficient. Curves were not generated for compounds having Ymax values were below 50%.
as §3

[5] = biological target: T1, S1P1; assay: Method B: Receptor [35S] GTPγS SPA Binding Assay, S1P1; type: biochemical; conditions: for EC50: Method B (SPA), S1P1 transfected CHO cell membranes; for GTPγS S1P3/S1P1 (Method B): ratio of S1P3 EC50 to S1P1 EC50, Method B
Method: as §4, §5, §3

[6] = test system: circulating lymphocytes; assay: Blood Lymphocyte Reduction Assay (BLR) in rats; type: in vivo, Lewis rats; conditions: oral
Method: (§6) Blood Lymphocyte Reduction Assay (BLR) in Rodents
(§7) Lewis rats or BALB/c mice were dosed orally with test article (as a solution or suspension in the vehicle) or vehicle alone (polyethylene glycol 300, “PEG300”). Blood was drawn at 4 hr and 24 h by retro-orbital bleeding. Blood lymphocyte counts were determined on an ADVIA 120 Hematology Analyzer (Siemens Healthcare Diagnostics). The results were measured as a reduction in the percentage of circulating lymphocytes as compared to the vehicle treated group at the 4 hr and 24 hr measurement. The results represent the average results of all animals within each treatment group (n=3-4).
(§8) Compounds of the present invention were tested in the Blood Lymphocyte Reduction assay (BLR) described hereinabove and the results are shown in Table D for rats and Table E for mice.

[7] = test system: circulating lymphocytes; assay: Blood Lymphocyte Reduction Assay (BLR) in mice; type: in vivo, BALB/c mice; conditions: oral
Method: as §6, §7, §8

[8] = test system: Lewis rats; assay: Rat Adjuvant Induced Arthritis Assay (AA); type: in vivo; conditions: for Paw Swelling (mL) on Day 21, Mean: vehicle mean 1.58
Method: Rat Adjuvant Induced Arthritis Assay (AA)
Male Lewis rats (150-175 g; Harlan, n=8 treatment group) were immunized at the base of the tail with 100 μl of 10 mg/ml freshly ground Mycobacterium butyricum (Difco Laboratories) in incomplete Freund's adjuvant (sigma). Animals were dosed once daily with the test article (as a solution or suspension in the vehicle) or vehicle alone (polyethylene glycol 300, “PEG300”) starting from the day of immunization. The volumes of their hind paws were measured in a water displacement plethysmometer (Ugo Basile, Italy). The baseline paw measurements were taken before onset of the disease (between day 7 to day 10). The paw measurements were then taken three times a week until the end of the study on day 20 to 21. All procedures involving animals were reviewed and approved by the Institutional Animal Care Use Committee.
Compounds of the present invention were tested in the Rat Adjuvant Induced Arthritis assay described hereinabove and the results are shown in Table F and Table G.

T1 sequence (P21453 whole entry): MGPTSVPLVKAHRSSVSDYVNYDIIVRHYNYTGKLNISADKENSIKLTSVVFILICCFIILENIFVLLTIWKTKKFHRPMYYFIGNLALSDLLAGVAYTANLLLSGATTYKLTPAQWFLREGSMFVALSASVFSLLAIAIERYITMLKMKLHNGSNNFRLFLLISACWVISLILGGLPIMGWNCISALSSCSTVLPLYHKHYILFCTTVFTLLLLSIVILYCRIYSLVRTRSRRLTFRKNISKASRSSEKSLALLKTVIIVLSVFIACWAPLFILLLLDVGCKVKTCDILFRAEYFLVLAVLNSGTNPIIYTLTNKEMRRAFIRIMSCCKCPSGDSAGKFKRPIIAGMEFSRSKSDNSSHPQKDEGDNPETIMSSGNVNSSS
T2 sequence (Q99500 whole entry): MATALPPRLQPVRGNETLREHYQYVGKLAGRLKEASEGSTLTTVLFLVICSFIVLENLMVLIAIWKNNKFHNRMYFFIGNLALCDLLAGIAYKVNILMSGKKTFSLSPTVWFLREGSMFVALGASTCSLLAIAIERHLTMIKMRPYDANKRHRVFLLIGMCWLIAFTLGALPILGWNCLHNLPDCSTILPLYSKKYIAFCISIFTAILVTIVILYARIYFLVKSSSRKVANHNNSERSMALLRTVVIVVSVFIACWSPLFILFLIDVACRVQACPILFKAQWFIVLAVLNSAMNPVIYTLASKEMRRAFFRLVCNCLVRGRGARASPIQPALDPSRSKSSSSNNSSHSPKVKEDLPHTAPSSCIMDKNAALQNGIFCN

SMILES	IC50 [1]	EC50 [2]	GTPγS S1P3/S1P1 (Method A) [2]	EC50 [3]	EC50 [4]	EC50 [5]	GTPγS S1P3/S1P1 (Method B) [5]	further results
CCCc1c(-c2nc(-c3ccc(CN4CC(C(=O)O)C4)cc3)no2)cnn1-c1ccccn1 [Example 6, 1-(4-(5-(5-propyl-1-(pyridin-2-yl)-1H-pyrazol-4-yl)-1,2,4-oxadiazol-3-yl)benzyl)azetidine-3-carboxylic acid]	0.12 nM	4.2 nM	690	2.9 µM	1300 nM	–	–	–
O=C(O)C1CN(Cc2ccc(-c3noc(-c4cnn(-c5ccccc5)c4-c4cccnc4)n3)cc2)C1 [Example 15, 1-(4-(5-(1-Phenyl-5-(pyridin-3-yl)-1H-pyrazol-4-yl)-1,2,4-oxadiazol-3-yl)benzyl)azetidine-3-carboxylic acid, 2,2,2-trifluoroacetic acid salt]	5.4 nM	52 nM	69	3.6 µM	4100 nM	2.2 nM	1,900	–
O=C(O)C1CN(Cc2ccc(-c3noc(-c4cnn(-c5ccccc5)c4C(F)(F)F)n3)cc2)C1 [Example 2, 1-(4-(5-(1-Phenyl-5-(trifluoromethyl)-1H-pyrazol-4-yl)-1,2,4-oxadiazol-3-yl)benzyl)azetidine-3-carboxylic acid]	0.3 nM	1.9 nM	–	–	2100 nM	0.17 nM	12,000	% reduction in lymphocytes at 4 hr. ([6]; 0.04 mg/kg): 64%; % reduction in lymphocytes at 24 hr. ([6]; 0.04 mg/kg): 8%; % reduction in lymphocytes at 4 hr. ([6]; 0.2 mg/kg): 76%; % reduction in lymphocytes at 24 hr. ([6]; 0.2 mg/kg): 55%; % reduction in lymphocytes at 4 hr. ([6]; 1.0 mg/kg): 76%; % reduction in lymphocytes at 24 hr. ([6]; 1.0 mg/kg): 79%; % reduction in lymphocytes at 4 hr. ([7]; 0.04 mg/kg): 68%; % reduction in lymphocytes at 24 hr. ([7]; 0.04 mg/kg): 5%; % reduction in lymphocytes at 4 hr. ([7]; 0.2 mg/kg): 76%; % reduction in lymphocytes at 24 hr. ([7]; 0.2 mg/kg): 64%; % reduction in lymphocytes at 4 hr. ([7]; 1.0 mg/kg): 80%; % reduction in lymphocytes at 24 hr. ([7]; 1.0 mg/kg): 82%; % reduction in lymphocytes at 4 hr. ([7]; 3.0 mg/kg): 73%; % reduction in lymphocytes at 24 hr. ([7]; 3.0 mg/kg): 89%; Paw Swelling (mL) on Day 21, Mean ([8]; 0.2 mg/kg once daily): 02.12 mL; Paw Swelling (mL) on Day 21, Mean ([8]; 1.0 mg/kg once daily): 0.91 mL; Paw Swelling (mL) on Day 21, Mean ([8]; 3.0 mg/kg once daily): 0.19 mL; Paw Swelling (mL) on Day 21, Mean ([8]; 10.0 mg/kg once daily): 0.10 mL; disease progression as measured by paw swelling ([8]; Lewis rat, prophylactic oral dosing): inhibit disease progression
Cc1c(-c2nc(-c3ccc(CN4CC(C(=O)O)C4)cc3)no2)cnn1-c1ccccc1 [Example 5, 1-(4-(5-(5-methyl-1-phenyl-1H-pyrazol-4-yl)-1,2,4-oxadiazol-3-yl)benzyl)azetidine-3-carboxylic acid]	30 nM	260 nM	50	13 µM	–	17 nM	–	–
